# Assay results from US5393743A, “Erythromycin derivatives” (Abbott Laboratories, priority 1993, dated 1995).
# Like-named read-outs stand apart in the source and are kept apart here.
# Assays:
# [1] = tested on: Pseudomonas aeruginosa K799/61; assay: In vitro antibacterial activity, agar dilution MIC; format: cell-based; settings: BHI agar, 35°-37° C., 20 to 24 hours, read-out: MIC
# Escherichia coli Juhl = assay: In vitro antibacterial activity, agar dilution MIC; format: cell-based
# Procedure: (§1) Representative compounds of the present invention were assayed in vitro for antibacterial activity as follows: Twelve petri dishes containing successive aqueous dilutions of the test compound mixed with 10 mL of sterilized Brain Heart Infusion (BHI) agar (Difco 0418-01-5) were prepared. Each plate was inoculated with 1:100 (or 1:10 for slow-growing strains, such as Micrococcus and Streptococcus) dilutions of up to 32 different microorganisms, using a Steers replicator block. The inoculated plates were incubated 35°-37° C. for 20 to 24 hours. In addition, a control plate, using BHI agar containing no test compound, was prepared and incubated at the beginning and end of each test.
# (§2) An additional plate containing a compound having known susceptibility patterns for the organisms being tested and belonging to the same antibiotic class as the test compound was also prepared and incubated as a further control, as well as to provide test-to-test comparability. Erythromycin A was used for this purpose.
# (§3) After incubation, each disk was read. The minimum inhibitory concentration (MIC) was defined as the lowest concentration of drug yielding no growth, a slight haze, or sparsely isolated colonies on the inoculum spot as compared to the growth control.
# [2] = tested on: Pseudomonas aeruginosa K799/WT; assay: In vitro antibacterial activity, agar dilution MIC; format: cell-based
# Procedure: as §1, §2, §3
# [3] = tested on: Streptococcus pyogenes EES61; assay: In vitro antibacterial activity, agar dilution MIC; format: cell-based
# Procedure: as §1, §2, §3
# [4] = tested on: Staphylococcus epidermidis 3519; assay: In vitro antibacterial activity, agar dilution MIC; format: cell-based
# Procedure: as §1, §2, §3
# [5] = tested on: Enterococcus faecium ATCC 8043; assay: In vitro antibacterial activity, agar dilution MIC; format: cell-based; settings: ATCC8043
# Procedure: as §1, §2, §3
# [6] = tested on: Staphylococcus aureus NCTC 10649; assay: In vitro antibacterial activity, agar dilution MIC; format: cell-based; settings: NCTC10649
# Procedure: as §1, §2, §3
# [7] = tested on: Streptococcus pyogenes 930 const; assay: In vitro antibacterial activity, agar dilution MIC; format: cell-based
# Procedure: as §1, §2, §3
# [8] = tested on: Staphylococcus aureus ATCC 6538P; assay: In vitro antibacterial activity, agar dilution MIC; format: cell-based; settings: ATCC6538P
# Procedure: as §1, §2, §3
# Escherichia coli KNK 437 = assay: In vitro antibacterial activity, agar dilution MIC; format: cell-based; settings: KNK437
# Procedure: as §1, §2, §3
# [9] = tested on: Klebsiella pneumoniae ATCC 8045; assay: In vitro antibacterial activity, agar dilution MIC; format: cell-based; settings: ATCC8045
# Procedure: as §1, §2, §3
# [10] = tested on: Staphylococcus aureus A5177; assay: In vitro antibacterial activity, agar dilution MIC; format: cell-based
# Procedure: as §1, §2, §3
# [11] = tested on: Pseudomonas aeruginosa 5263; assay: In vitro antibacterial activity, agar dilution MIC; format: cell-based
# Procedure: as §1, §2, §3
# Escherichia coli H560 = assay: In vitro antibacterial activity, agar dilution MIC; format: cell-based
# Procedure: as §1, §2, §3
# [12] = tested on: Pseudomonas aeruginosa 2862; assay: In vitro antibacterial activity, agar dilution MIC; format: cell-based
# Procedure: as §1, §2, §3
# [13] = tested on: Staphylococcus aureus CMX 642a; assay: In vitro antibacterial activity, agar dilution MIC; format: cell-based; settings: CMX642A
# Procedure: as §1, §2, §3
# [14] = tested on: Staphylococcus aureus 1775 Cipro R; assay: In vitro antibacterial activity, agar dilution MIC; format: cell-based; settings: Staphylococcus aureus, 1775CIPROR
# Procedure: as §1, §2, §3
# [15] = tested on: Streptococcus agalactiae 508; assay: In vitro antibacterial activity, agar dilution MIC; format: cell-based
# Procedure: as §1, §2, §3
# [16] = tested on: Staphylococcus aureus A5278; assay: In vitro antibacterial activity, agar dilution MIC; format: cell-based; settings: Staphylococcus aureus, A5278
# Procedure: as §1, §2, §3
# [17] = tested on: Streptococcus bovis A5169; assay: In vitro antibacterial activity, agar dilution MIC; format: cell-based; settings: Streptococcus equinus, A5169
# Procedure: as §1, §2, §3
# [18] = tested on: Pseudomonas aeruginosa BMH10; assay: In vitro antibacterial activity, agar dilution MIC; format: cell-based
# Procedure: as §1, §2, §3
# [19] = tested on: Streptococcus pyogenes 2548 induc; assay: In vitro antibacterial activity, agar dilution MIC; format: cell-based
# Procedure: as §1, §2, §3
# Escherichia coli DC-2 = assay: In vitro antibacterial activity, agar dilution MIC; format: cell-based; settings: DC2
# Procedure: as §1, §2, §3
# [20] = tested on: Acinetobacter calcoaceticus CMX 669; assay: In vitro antibacterial activity, agar dilution MIC; format: cell-based; settings: Acinetobacter calcoaceticus, CMX669
# Procedure: as §1, §2, §3
# Pseudomonas cepacia 2961 = assay: In vitro antibacterial activity, agar dilution MIC; format: cell-based; settings: Burkholderia cepacia
# Procedure: as §1, §2, §3
# [21] = tested on: Staphylococcus aureus CMX 553; assay: In vitro antibacterial activity, agar dilution MIC; format: cell-based; settings: CMX553
# Procedure: as §1, §2, §3
# Micrococcus luteus 4698 = assay: In vitro antibacterial activity, agar dilution MIC; format: cell-based
# Procedure: as §1, §2, §3
# [22] = tested on: Pseudomonas aeruginosa A5007; assay: In vitro antibacterial activity, agar dilution MIC; format: cell-based
# Procedure: as §1, §2, §3
# [23] = tested on: Enterobacter aerogenes ATCC 13048; assay: In vitro antibacterial activity, agar dilution MIC; format: cell-based; settings: Klebsiella aerogenes, ATCC13048
# Procedure: as §1, §2, §3
# [24] = tested on: Providencia stuartii CMX 640; assay: In vitro antibacterial activity, agar dilution MIC; format: cell-based; settings: CMX640
# Procedure: as §1, §2, §3
# [25] = tested on: Micrococcus luteus ATCC 9341; assay: microbe, parasite or virus in culture; settings: Micrococcus luteus, ATCC9341
# Procedure: as §1, §2, §3
# Escherichia coli SS = assay: microbe, parasite or virus in culture; settings: Escherichia coli
# Procedure: as §1, §2, §3
smiles,measurement,setting,value
"CC[C@H]1OC(=O)[C@H](C)[C@@H](O[C@H]2C[C@@](C)(OC)[C@@H](O)[C@H](C)O2)[C@H](C)[C@@H](O[C@@H]2O[C@H](C)C[C@H](N(C)C)[C@H]2O)[C@](C)(O)C[C@@H](C)C(=O)[C@H](C)[C@@H](O)[C@]1(C)O [CONTROL, Erythromycin A, reference compound]",MIC,[1],3.1 µg/mL
same,MIC,Escherichia coli Juhl; Escherichia coli,50 µg/mL
same,MIC,"[2]; Pseudomonas aeruginosa, K799/WT",> 100 µg/mL
same,MIC,"[3]; Streptococcus pyogenes, EES61",0.05 µg/mL
same,MIC,"[4]; Staphylococcus epidermidis, 3519",0.2 µg/mL
same,MIC,[5]; Enterococcus faecium,0.1 µg/mL
same,MIC,[6]; Staphylococcus aureus,0.2 µg/mL
same,MIC,"[7]; Streptococcus pyogenes, 930CONST",> 100 µg/mL
same,MIC,[8]; Staphylococcus aureus,0.2 µg/mL
same,MIC,Escherichia coli KNK 437; Escherichia coli,50 µg/mL
same,MIC,[9]; Klebsiella pneumoniae,50 µg/mL
same,MIC,"[10]; Staphylococcus aureus, A5177",1.56 µg/mL
same,MIC,"[11]; Pseudomonas aeruginosa, 5263",> 100 µg/mL
same,MIC,"Escherichia coli H560; Escherichia coli, H560",50 µg/mL
same,MIC,"[12]; Pseudomonas aeruginosa, 2862",> 100 µg/mL
same,MIC,[13]; Staphylococcus aureus,0.2 µg/mL
same,MIC,[14],> 100 µg/mL
same,MIC,"[15]; Streptococcus agalactiae, 508",0.05 µg/mL
same,MIC,[16],> 100 µg/mL
same,MIC,[17],0.05 µg/mL
same,MIC,"[18]; Pseudomonas aeruginosa, BMH10",100 µg/mL
same,MIC,"[19]; Streptococcus pyogenes, 2548INDUC",6.2 µg/mL
same,MIC,Escherichia coli DC-2; Escherichia coli,100 µg/mL
same,MIC,[20],1.56 µg/mL
same,MIC,Pseudomonas cepacia 2961; 2961,> 100 µg/mL
same,MIC,[21]; Staphylococcus aureus,0.2 µg/mL
same,MIC,"Micrococcus luteus 4698; Micrococcus luteus, 4698",0.39 µg/mL
same,MIC,"[22]; Pseudomonas aeruginosa, A5007",> 100 µg/mL
same,MIC,[23],100 µg/mL
same,MIC,[24]; Providencia stuartii,> 100 µg/mL
same,MIC,[25],0.05 µg/mL
same,MIC,Escherichia coli SS,0.39 µg/mL
"CC[C@H]1OC(=O)[C@H](C)[C@@H](O[C@H]2C[C@](C)(F)[C@@H](OC)[C@H](C)O2)[C@H](C)[C@@H](O[C@@H]2O[C@H](C)C[C@H](N(C)C)[C@H]2O)[C@@]2(C)CC(C)=C(O2)[C@H](C)[C@H]2OC(=O)O[C@@]21C [Example 17, (3""S)-8,9-Anhydro-11-O,12-O-carbonyl-3""-fluoro-3""-desmethoxy-4""-O-methylerythromycin A-6,9-hemiketal]",MIC,[1],50 µg/mL
same,MIC,"Escherichia coli Juhl; Escherichia coli Juhl, BHI agar, 35°-37° C., 20 to 24 hours, read-out: MIC",> 100 µg/mL
same,MIC,"[2]; Pseudomonas aeruginosa K799/WT, BHI agar, 35°-37° C., 20 to 24 hours, read-out: MIC",> 100 µg/mL
same,MIC,"[3]; Streptococcus pyogenes EES61, BHI agar, 35°-37° C., 20 to 24 hours, read-out: MIC",0.2 µg/mL
same,MIC,"[4]; Staphylococcus epidermidis 3519, BHI agar, 35°-37° C., 20 to 24 hours, read-out: MIC",1.56 µg/mL
same,MIC,"[5]; Enterococcus faecium ATCC 8043, BHI agar, 35°-37° C., 20 to 24 hours, read-out: MIC",0.39 µg/mL
same,MIC,"[6]; Staphylococcus aureus NCTC 10649, BHI agar, 35°-37° C., 20 to 24 hours, read-out: MIC",1.56 µg/mL
same,MIC,"[7]; Streptococcus pyogenes 930 const, BHI agar, 35°-37° C., 20 to 24 hours, read-out: MIC",12.5 µg/mL
same,MIC,"[8]; Staphylococcus aureus ATCC 6538P, BHI agar, 35°-37° C., 20 to 24 hours, read-out: MIC",1.56 µg/mL
same,MIC,"Escherichia coli KNK 437; Escherichia coli KNK 437, BHI agar, 35°-37° C., 20 to 24 hours, read-out: MIC",> 100 µg/mL
same,MIC,"[9]; Klebsiella pneumoniae ATCC 8045, BHI agar, 35°-37° C., 20 to 24 hours, read-out: MIC",> 100 µg/mL
same,MIC,"[10]; Staphylococcus aureus A5177, BHI agar, 35°-37° C., 20 to 24 hours, read-out: MIC",12.5 µg/mL
same,MIC,"[11]; Pseudomonas aeruginosa 5263, BHI agar, 35°-37° C., 20 to 24 hours, read-out: MIC",> 100 µg/mL
same,MIC,"Escherichia coli H560; Escherichia coli H560, BHI agar, 35°-37° C., 20 to 24 hours, read-out: MIC",> 100 µg/mL
same,MIC,"[12]; Pseudomonas aeruginosa 2862, BHI agar, 35°-37° C., 20 to 24 hours, read-out: MIC",> 100 µg/mL
same,MIC,"[13]; Staphylococcus aureus CMX 642a, BHI agar, 35°-37° C., 20 to 24 hours, read-out: MIC",1.56 µg/mL
same,MIC,[14],25 µg/mL
same,MIC,"[15]; Streptococcus agalactiae 508, BHI agar, 35°-37° C., 20 to 24 hours, read-out: MIC",0.2 µg/mL
same,MIC,[16],25 µg/mL
same,MIC,[17],0.1 µg/mL
same,MIC,"[18]; Pseudomonas aeruginosa BMH10, BHI agar, 35°-37° C., 20 to 24 hours, read-out: MIC",> 100 µg/mL
same,MIC,"[19]; Streptococcus pyogenes 2548 induc, BHI agar, 35°-37° C., 20 to 24 hours, read-out: MIC",1.56 µg/mL
same,MIC,"Escherichia coli DC-2; Escherichia coli DC-2, BHI agar, 35°-37° C., 20 to 24 hours, read-out: MIC",> 100 µg/mL
same,MIC,[20],25 µg/mL
same,MIC,"Pseudomonas cepacia 2961; Pseudomonas cepacia 2961, BHI agar, 35°-37° C., 20 to 24 hours, read-out: MIC",> 100 µg/mL
same,MIC,"[21]; Staphylococcus aureus CMX 553, BHI agar, 35°-37° C., 20 to 24 hours, read-out: MIC",1.56 µg/mL
same,MIC,"Micrococcus luteus 4698; Micrococcus luteus 4698, BHI agar, 35°-37° C., 20 to 24 hours, read-out: MIC",1.56 µg/mL
same,MIC,"[22]; Pseudomonas aeruginosa A5007, BHI agar, 35°-37° C., 20 to 24 hours, read-out: MIC",> 100 µg/mL
same,MIC,"[23]; Enterobacter aerogenes ATCC 13048, BHI agar, 35°-37° C., 20 to 24 hours, read-out: MIC",> 100 µg/mL
same,MIC,"[24]; Providencia stuartii CMX 640, BHI agar, 35°-37° C., 20 to 24 hours, read-out: MIC",> 100 µg/mL
same,MIC,[25],0.1 µg/mL
same,MIC,Escherichia coli SS,3.1 µg/mL
